Results from the NIST ThermoML archive (doi:10.1021/acs.jced.6b01038).
Numbers after ± are expanded uncertainties.

Columns and labels:
[1] = 298.15 K; 101.3 kPa; Liquid; Vibrating tube method
[2] = refractive index (Na D-line) (dimensionless); conditions: 298.15 K; 101.3 kPa; Liquid; Standard Abbe refractometry

| SMILES | mass density [1] | refractive index [2] |
| --- | --- | --- |
| CCN(CC)CCO [(diethylamino)ethanol] | 880 ± 5 kg/m3 | 1.43833 ± 0.001 |
| CNCCCN [N-methyl-1,3-diaminopropane] | 848 ± 5 kg/m3 | 1.44564 ± 0.0012 |
| CN(CCO)CCO [N-methyldiethanolamine] | 1037 ± 2 kg/m3 | 1.4674 ± 0.0011 |
| O [water] | – | 1.33249 ± 0.001 |
